SMILES strings stand for the structures. A value given as a limit tells only on which side of the number the result lay.

Assay [1] addresses T1, Recombinant NAMPT protein (Homo sapiens, UniProt P43490).
T1 construct: purchased BPS bioscience # 7176-1
The assay can be described thus: NAMPT enzyme inhibition assay (BPS bioscience NAMPT Inhibitor Screening Assay Kit, fluorescence). It is filed as biochemical. Conditions: 30 min pre-incubation, 2 h at 30°C, compound 1000 nM to 3 nM, n=2. As to the method:
The NAMPT enzyme activity inhibition ability of the compound of the present invention was evaluated using the NAMPT Inhibitor Screening Assay Kit (# 7176-1) from BPS bioscience. Recombinant NAMPT protein was added to each well of a black 96-well plate, and dilution buffer was added to a blank well instead of NAMPT protein. A 5 x concentrated compound solution was added and pre-incubated at room temperature (approximately 22°C) for 30 minutes before the start of the reaction so that the compound and protein might bind before the enzyme reaction. At this time, the concentration of NAMPT protein was adjusted and used according to the enzyme activity of each protein lot within the final concentration range of 4-10 ng/µl, and the test compound was serially diluted at a ratio of 1:3 from 1000 nM to 3 nM, and experiments were conducted with n=2 for about seven concentrations. A 2 x concentrated test buffer containing ATP (final concentration of 20 µM), nicotinamide (final concentration of 20 µM), phosphoribosyl pyrophosphate (PRPP, final concentration of 40 µM), and ethanol (final concentration of 1.5%) was added, and the plate was incubated at 30°C for two hours, after which the fluorescence of a resulting reaction product was measured with excitation of 340 nm and emission of 460 nm. The NAMPT enzyme activity (%) was calculated by subtracting the measurement value of the blank well without NAMPT protein from the measurement value of all wells, and then taking the measurement value of the control well without the compound as 100%.

The test system of a further assay is HCT-116 cell lines. The experiment in a line: Cellular NAD measurement assay (NAD/NADH-Glo Assay). It is filed as cell-based. To be noted: Homo sapiens; intracellular NAD+/NADH levels, HCT-116 cells, 24 hours treatment, 0.1 nM to 100 nM. As to the method:
With regard to HCT-116 cell lines, the decrease in intracellular NAD+ and NADH levels due to the inhibition of NAMPT enzyme activity by compounds was evaluated using the product of NAD/NADH-Glo™ Assay (Promega, G9072) from Promega. The cells were incubated using DMEM (Gibco, 11995-065) medium containing 10% FBS. The HCT-116 cells were incubated for 24 hours after being distributed at a density of 2,500 cells per well in a 96-well plate, and were treated with a drug using a serum-free DMEM. First, a compound was dissolved in 100% dimethyl sulfoxide (DMSO), and then diluted in the culture medium so that the final concentration of DMSO might reach 0.5%, and treated with the drug. The final concentration range of the compounds was 0.1 nM to 100 nM. After that, they were further incubated for 24 hours at 37°C and CO2 5%. To conduct the NAD/NADH-Glo™ Assay, the culture medium of drug-treated cells was removed, and 50 µL of DPBS was treated per well, and left at room temperature for five minutes. The required amount of NAD/NADH-Glo™ Detection Reagent (Reconstituted Luciferin Detection Reagent 1 mL, Reductase 5 µL, Reductase Substrate 5 µL, NAD Cycling Enzyme 5 µL, NAD Cycling Substrate 25 µL) was prepared according to the manufacturer's manual and treated in an amount of 50 µL per well. After incubating for two minutes at 400 rpm in a plate shaker for cell lysis, the cells were incubated for 30 minutes at room temperature, and luminescence was measured. NAD+/NADH levels were calculated by subtracting the measurement value of the blank well without cells from the measurement value of all wells and taking the 0.5% DMSO-treated control as 100%.

In assay [2] the test system is HCT116 colorectal cancer cell lines. The experiment in a line: Tumor cytotoxicity assay (MTT). It is filed as cell-based. Conditions: Homo sapiens, HCT-116, HCT116 cells, 72 hours treatment, 0.1 nM to 1000 nM. As to the method: The anticancer efficacy of the compound of the present invention was evaluated using the MTT analysis method in HCT116 colorectal cancer cell lines. The cells were incubated using DMEM medium containing 10% FBS. The cells were distributed in a 96-well plate at a density of 2,500 cells per well, the HCT116 cells were incubated for 24 hours, and then treated with a drug using a serum free DMEM. First, a compound was prepared in 100% dimethyl sulfoxide (DMSO) at a concentration of 0.02 µM to 200 µM, diluted in the culture medium so that the final concentration of DMSO might reach 0.5%, and treated with the drug so that the final concentration of the compound might range from 0.1 nM to 1000 nM. After that, they were further incubated for 72 hours at 37°C and CO2 5% and treated with MTT (Sigma-Aldrich, M2128) to confirm cytotoxicity. Formazan produced from reduction by enzymes in the mitochondria of living cells was measured using Spark® Multimode Microplate Reader TECAN equipment. A cell viability (%) was relatively determined by subtracting a reference 650 nm optical density (O.D.) from 570 nm O.D., in which the 0.5% DMSO-treated control was set as a standard of 100%. […]

T1 sequence (P43490 whole entry): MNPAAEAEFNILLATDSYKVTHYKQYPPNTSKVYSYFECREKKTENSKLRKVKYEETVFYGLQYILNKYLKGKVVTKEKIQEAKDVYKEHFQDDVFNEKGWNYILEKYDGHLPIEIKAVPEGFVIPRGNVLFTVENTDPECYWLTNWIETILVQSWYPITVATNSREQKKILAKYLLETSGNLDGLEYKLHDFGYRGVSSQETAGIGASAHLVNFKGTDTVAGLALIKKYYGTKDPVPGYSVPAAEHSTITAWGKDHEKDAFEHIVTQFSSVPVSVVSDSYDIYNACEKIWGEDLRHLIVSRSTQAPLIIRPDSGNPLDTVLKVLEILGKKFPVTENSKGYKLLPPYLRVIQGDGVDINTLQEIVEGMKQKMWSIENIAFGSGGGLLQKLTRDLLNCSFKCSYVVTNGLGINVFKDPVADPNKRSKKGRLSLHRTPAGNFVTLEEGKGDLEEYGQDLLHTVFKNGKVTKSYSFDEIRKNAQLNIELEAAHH

For the molecule `Cn1ccc(CS(=O)(=O)c2ccc(C(=O)NCc3ccn4ccnc4c3)cc2C#Cc2ccc(F)cc2)n1` [compound 2, 3-((4-fluorophenyl)ethynyl)-N-(imidazo[1,2-a]pyridin-7-ylmethyl)-4-(((1-methyl-1H-pyrazol-3-yl)methyl)sulfonyl)benzamide], the IC50 is less than 500 nM in assay [1] and no more than 10 nM in the assay on HCT-116 cell lines. Besides, the CC50 in assay [2] is no more than 30 nM.
The corresponding values for `Cn1ccc(CS(=O)(=O)c2ccc(C(=O)NCc3ccn4ccnc4c3)cc2C#Cc2cccc(N)c2)n1` [compound 229, 3-((3-aminophenyl)ethynyl)-N-(imidazo[1,2-a]pyridin-7-ylmethyl)-4-(((1-methyl-1H-pyrazol-3-yl)methyl)sulfonyl)benzamide] are less than 500 nM, no more than 10 nM and no more than 30 nM.
The corresponding values for `O=C(NCCCc1cn[nH]c1)c1ccc(S(=O)(=O)Cc2ccn(-c3ccncc3)n2)c(C#Cc2ccc(F)cc2)c1` [compound 10, N-(3-(1H-pyrazol-4-yl)propyl)-3-((4-fluorophenyl)ethynyl)-4-(((1-(pyridin-4-yl)-1H-pyrazol-3-yl)methyl)sulfonyl)benzamide] are less than 500 nM, no more than 10 nM and no more than 30 nM.
The like results for `Cn1ccc(CS(=O)(=O)c2ccc(C(=O)NCc3ccn4ccnc4c3)cc2C#Cc2cccc(C(=O)N3CCNCC3)c2)n1` [compound 230, N-(imidazo[1,2-a]pyridin-7-ylmethyl)-4-(((1-methyl-1H-pyrazol-3-yl)methyl)sulfonyl)-3-((3-(piperazine-1-carbonyl)phenyl)ethynyl)benzamide] were, in that order, less than 500 nM, 10 to 1000 nM and 100 to 1000 nM.
Consider `Cn1ccc(CS(=O)(=O)c2ccc(C(=O)NCc3ccn4ccnc4c3)cc2C#Cc2ccc(N)cc2)n1` [compound 228, 3-((4-aminophenyl)ethynyl)-N-(imidazo[1,2-a]pyridin-7-ylmethyl)-4-(((1-methyl-1H-pyrazol-3-yl)methyl)sulfonyl)benzamide], for which the values for the IC50 (in assay [1]; with HCT-116 cell lines) were less than 500 nM and no more than 10 nM, respectively. In assay [2], this molecule returned a CC50 of no more than 30 nM.
On to `Cn1ccc(CS(=O)(=O)c2ccc(C(=O)NCc3cnc4nccn4c3)cc2C#Cc2ccc(F)cc2)n1` [compound 238, 3-((4-fluorophenyl)ethynyl)-N-(imidazo[1,2-a]pyrimidin-6-ylmethyl)-4-(((1-methyl-1H-pyrazol-3-yl)methyl)sulfonyl)benzamide], for which, in assay [1], the IC50 was less than 500 nM. Further, the CC50 in assay [2] is 100 to 1000 nM.
Consider `Cn1ccc(CS(=O)(=O)c2ccc(C(=O)NCCCc3cn[nH]c3)cc2C#Cc2ccc(F)cc2)n1` [compound 1, N-(3-(1H-pyrazol-4-yl)propyl)-3-((4-fluorophenyl)ethynyl)-4-(((1-methyl-1H-pyrazol-3-yl)methyl)sulfonyl)benzamide], for which the half-inhibitory concentration (IC50) was less than 500 nM in assay [1] and no more than 10 nM in the assay on HCT-116 cell lines. In assay [2], this molecule returned a CC50 of no more than 30 nM.
`O=C(NCc1ccn2ccnc2c1)c1ccc(S(=O)(=O)Cc2cc[nH]n2)c(C#Cc2ccc(F)cc2)c1` [compound 234, 4-(((1H-pyrazol-3-yl)methyl)sulfonyl)-3-((4-fluorophenyl)ethynyl)-N-(imidazo[1,2-a]pyridin-7-ylmethyl)benzamide]: the IC50 in assay [1] was less than 500 nM. This molecule also registered a CC50 in assay [2] of no more than 30 nM.

By IC50 is commonly meant the concentration that inhibits the measured activity by half. Broadly, the CC50 is the concentration at which the toxic effect on the cells reaches its halfway point. The low end stands for harm at low concentration, the high end for better tolerance by the cells.

The values above are taken from EP4722208A1, “NOVEL BENZAMIDE DERIVATIVE COMPOUND AND PHARMACEUTICAL COMPOSITION COMPRISING SAME” (Samjin Pharmaceutical Co., Ltd., priority 2023, dated 2024).
